From patent US12642269B2, “Hydrogels as carriers of active ingredients and methods of producing the same” (WinField Solutions, LLC, priority 2018, dated 2026) come the findings set out here.

In assay [1] the test system is gumbo plants. In words: Example 4: herbicide-induced plant injury or death from precursor mixtures of different lactose to methacrylic anhydride ratios, visual rating. The assay is classed as in vivo. The following applies: 14 days after spraying; glyphosate about 2.34% v/v, 10 gallons spray solution per acre; greenhouse; 100% = total death. As for the experimental part: Release of an herbicide from loaded hydrogels was indirectly studied by examining plant injury or death. Hydrogel precursor mixtures were prepared according to the method 200 illustrated in FIG. 2. The precursor mixture was prepared at a lactose to methacrylic anhydride ratio of 1:0.5, 1:0.25, or 1:0.1 (test groups).
Glyphosate (as Touchdown HiTech®, Syngenta) alone (control group) or glyphosate plus hydrogel precursor mixture (test groups) was added to water to form a spray solution. The amount of glyphosate in spray solution was approximately the same (i.e., about 2.34% v/v) for each control and test group. Test groups also included one of the hydrogel precursor mixtures at 5% v/v. Each group included five gumbo plants in a greenhouse. Control or test groups were sprayed at 10 gallons of spray solution per acre. In the test groups, the hydrogel precursor mixtures plus glyphosate were allowed to crosslink in ambient conditions after application to the plants.
Plant injury or death, from direct glyphosate application (control) or release of glyphosate from carrier hydrogels (tests), was measured after 14 days by a visual rating system. Results are presented in FIG. 5 as plant injury or death as a percentage, where “100% control” represents total death of a plant. The same letter attributed to more than one group indicates no statistically significant difference between those groups. […]

The subject of assay [2] is gumbo plants. In words: Example 3: herbicide-induced plant injury or death from carrier hydrogel precursor mixtures applied to plants, visual rating. Type of assay: in vivo. The note with it: 14 days after spraying; glyphosate about 2.34% v/v, 10 gallons spray solution per acre; greenhouse; 100% = total death. As for the experimental part: Release of an herbicide from loaded hydrogels was indirectly studied by examining plant injury or death. Hydrogel precursor mixtures were prepared according to the method 200 illustrated in FIG. 2. The precursor mixture was prepared at a lactose to methacrylic anhydride ratio of 1:0.5.
Glyphosate (as Touchdown HiTech®, Syngenta) alone (control group) or glyphosate plus hydrogel precursor mixture (test groups) was added to water to form a spray solution. The amount of glyphosate in a spray solution was approximately the same (i.e., about 2.34% v/v) for each control and test group. Test groups also included hydrogel precursor mixture at 5% v/v, 10% v/v, 20% v/v, 25% v/v, or 50% v/v of spray solution. Each group included five gumbo plants in a greenhouse. Control or test groups were sprayed at 10 gallons of spray solution per acre. In the test groups, the hydrogel precursor mixtures plus glyphosate were allowed to crosslink in ambient conditions after application to the plants.
Plant injury or death, from direct glyphosate application (control) or release of glyphosate from carrier hydrogels (tests), was measured after 14 days by a visual rating system. Results are presented in FIG. 5 as plant injury or death as a percentage, where “100% control” represents total death of a plant. […]

For `O=C(O)CNCP(=O)(O)O` [Glyphosate, N-(phosphonomethyl)glycine], the “Plant injury or death (average damage on plants)” value with gumbo plants [1] was 55%; in the assay with gumbo plants [2], 85%.
